The results in this text go back to patent US7041292B1, “Treating prostate cancer with anti-ErbB2 antibodies” (Genentech, Inc., priority 1999, dated 2006).

“Also recorded” adds a separate entry of the source.

The subject of one assay is MDA-MB-175 cells. The assay is described as follows: MDA-MB-175 cell proliferation, crystal violet, 4 days, with or without rHRGβ1. Type of assay: cell-based, human. Conditions: 10 μg/mL, not significantly reversed by exogenous HRG, FIG. 4A. On the procedure: (§1) Experiment was carried out in medium containing 1% serum. Anti-ErbB2 antibodies or medium alone were added and the cells were incubated for 2 hours at 37° C. Subsequently rHRGβ1 (1 nM) or medium alone were added and the cells were incubated for 4 days. Monolayers were washed and stained/fixed with 0.5% crystal violet. To determine cell proliferation the absorbance was measured at 540 nm.
(§2) ErbB2 levels in MDA-MB-175 cells are 4–6 times higher than the level found in normal breast epithelial cells and the ErbB2-ErbB4 receptor is constitutively tyrosine phosphorylated in MDA-MB-175 cells. […] Inhibition of cell proliferation by 4D5 is dependent on the ErbB2 expression level (Lewis et al. Cancer Immunol. Immunother. 37:255–263 (1993)). […] However this effect […] by exogenous HRG.

In assay [1] the test system is EGF, TGF-α or HRG mediated activation of MAPK in MCF7 cells. Put plainly: EGF, TGF-α or HRG activation of MAPK in MCF7 cells, Western blot. Type of assay: cell-based, human. Conditions: 200 nM antibody; 1 nM EGF, 1 nM TGF-α or 0.2 nM HRG; FIG. 10. How it is done:
Many growth factor receptors signal through the mitogen-activated protein kinase (MAPK) pathway. These dual specificity kinases are one of the key endpoints in signal transduction pathways that ultimately triggers cancer cells to divide.
MCF7 cells (10^5 cells/well) were plated in serum containing media in 12-well cell culture plates. The next day, the cell media was removed and fresh media containing 0.1% serum was added to each well. This procedure was then repeated the following day and prior to assay the media was replaced with serum-free binding buffer (Jones et al. J. Biol. Chem. 273:11667–74 (1998); and Schaefer et al. J. Biol. Chem. 274:859–66 (1999)). […] Cells were then treated with 1 nM EGF, 1 nM TGF-α or 0.2 nM HRG for 15 minutes. The reaction was stopped by aspirating the cell medium and then adding 0.2 mL SDS-PAGE sample buffer containing 1% DTT. MAPK activation was assessed by Western blotting using an anti-active MAPK antibody (Promega) as described previously (Jones et al. J. Biol. Chem. 273:11667–74 (1998)).
A general note: A western blot detects proteins with antibodies after separation by electrophoresis.

Assay [2] relates to CWR22 human prostate cancer xenograft. The assay is described as follows: Androgen dependent CWR22 prostate cancer xenograft. The format is in vivo, mice. As to conditions: antibody 20 mg/kg twice weekly.
Excerpt: Animal studies: Four to six week old nude athymic BALB/c male and female mice were obtained from the National Cancer Institute-Frederick Cancer Center and maintained in pressurized ventilated caging at the Sloan-Kettering Institute. Male animals were inoculated s.c. with 1×10^6 LNCaP cells or minced tumor tissue from the androgen dependent CWR22, and females received the androgen independent sublines CWR22R, or CWR22SA1, CWRSA4, CWRSA6 which were obtained by selecting tumors for regrowth and increased serum PSA after androgen withdrawal. […] Control mice were given vehicle alone. Tumors were measured every 3–4 days with vernier calipers, and tumor volumes were calculated by the formula: p/6 × larger diameter × (smaller diameter)^2. Animals with palpably established tumors of at least 65 mm^3 in volume were designated to treatment groups.
Pairwise differences between the tumor volumes of the treatment groups were compared over time using a permutation test. […] The statistic used to test the hypothesis was the sum of the squared differences between mean tumor volume summed over all time points.
(§3) The effect of an antibody, which blocks ligand activation of an ErbB receptor, on human prostate cancer was assessed.
(§4) Both antibodies were dosed at 20 mg/kg twice per week.
The test system of another assay is SK-BR-3 cells. Put plainly: SK-BR-3 cell proliferation, crystal violet, 4 days, with or without rHRGβ1. As to conditions: 1% serum, FIG. 4B. Type of assay: cell-based, human. On the procedure:
as §1, §2

Assay [3] concerns CWR22R human prostate cancer xenograft. Put plainly: Androgen independent CWR22R prostate cancer xenograft. The format is in vivo, mice. Conditions: for effect on tumor growth / clinical activity: CWR22R androgen independent.
Description: (§5) Male animals were inoculated s.c. with 1×10^6 LNCaP cells or minced tumor tissue from the androgen dependent CWR22, and females received the androgen independent sublines CWR22R, or CWR22SA1, CWRSA4, CWRSA6 which were obtained by selecting tumors for regrowth and increased serum PSA after androgen withdrawal. […] Control mice were given vehicle alone. Tumors were measured every 3–4 days with vernier calipers, and tumor volumes were calculated by the formula: p/6 × larger diameter × (smaller diameter)^2. Animals with palpably established tumors of at least 65 mm^3 in volume were designated to treatment groups.
Pairwise differences between the tumor volumes of the treatment groups were compared over time using a permutation test.
as §3
All injections were given IP (N=5).
as §4
The subject of assay [4] is CWRSA6 human prostate cancer xenograft. The assay is described as follows: Androgen independent CWRSA6 prostate cancer xenograft. The format is in vivo, mice.
Description: as §5
Statistical Analysis. Pairwise differences between the tumor volumes of the treatment groups were compared over time using a permutation test. […] The statistic used to test the hypothesis was the sum of the squared differences between mean tumor volume summed over all time points.
In assay [5] the test system is MSKPC6 androgen independent prostate xenograft. The assay is described as follows: Androgen independent MSKPC6 prostate xenograft, dose response. Type of assay: in vivo. Conditions: IP loading 6, 20 or 60 mg/kg then 3, 10 or 30 mg/kg twice weekly, FIG. 25. On the procedure:
Dose response studies were carried out using rhuMAb 4D5 in the CWR22R and MSKPC6 (Agus et al. Cancer Research 59:4761–4764 (1999)) androgen independent prostate xenografts. Animals were dosed IP with: control; 6 mg/kg loading dose then 3 mg/kg twice weekly; 20 mg/kg loading dose then 10 mg/kg twice weekly; or 60 mg/kg loading dose then 30 mg/kg twice weekly.

For assay [6], the system named is LNCaP human prostate cancer xenograft. Put plainly: Androgen dependent LNCaP prostate cancer xenograft. Type of assay: in vivo, mice. Conditions: end of the treatment period, n=6.
Excerpt: Animal studies: Four to six week old nude athymic BALB/c male and female mice were obtained from the National Cancer Institute-Frederick Cancer Center and maintained in pressurized ventilated caging at the Sloan-Kettering Institute. Male animals were inoculated s.c. with 1×10^6 LNCaP cells or minced tumor tissue from the androgen dependent CWR22, and females received the androgen independent sublines CWR22R, or CWR22SA1, CWRSA4, CWRSA6 which were obtained by selecting tumors for regrowth and increased serum PSA after androgen withdrawal. All lines were injected together with reconstituted basement membrane (Matrigel; Collaborative Research, Bedford, Mass.) as described previously (Nagabhushan et al. Cancer Res. 56:3042–3046 (1996); Wainstein et al. Cancer Res. 54:6049–6052 (1994); and Sato et al. Cancer Res. 57:1584–1589 (1997)). To maintain serum testosterone levels, male mice were implanted with 12.5-mg sustained release testosterone pellets (Innovative Research of American, Sarasota, Fla.) s.c. before receiving the tumor cell inoculation. […] Control mice were given vehicle alone. Tumors were measured every 3–4 days with vernier calipers, and tumor volumes were calculated by the formula: p/6 × larger diameter × (smaller diameter)^2. Animals with palpably established tumors of at least 65 mm^3 in volume were designated to treatment groups. […]

Take “2C4: murine monoclonal antibody binding the extracellular domain of ErbB2, blocks ligand activation; ATCC HB12697 [Mutant 2C4]”: in the assay on MDA-MB-175 cells, the “growth inhibitory effect on MDA-MB-175 cells” value was “strong growth inhibitory effect”. In addition, the “block of EGF, TGF-α and HRG mediated activation of MAPK” value in assay [1] is “significantly blocks”. Besides, the figures for the “effect on tumor growth / clinical activity” value in assay [2], in assay [3] and in assay [4] (CWRSA6 androgen independent) were “has clinical activity”, “has clinical activity; also recorded: suppresses the growth of androgen-independent tumor xenografts in a dose dependent manner” and “has clinical activity”, respectively. The “growth inhibitory effect on SK-BR-3 cells” value in the assay on SK-BR-3 cells was “no inhibitory effect”. Further, the “effect on tumor growth” value in assay [5] is listed as “suppresses the growth of androgen-independent tumor xenografts in a dose dependent manner”.
As to `CC(=O)O[C@H]1C(=O)[C@@]2(C)[C@H]([C@H](OC(=O)c3ccccc3)[C@]3(O)C[C@H](OC(=O)[C@H](O)[C@@H](NC(=O)c4ccccc4)c4ccccc4)C(C)=C1C3(C)C)[C@]1(OC(C)=O)CO[C@@H]1C[C@@H]2O` [paclitaxel, reference compound], the mean tumor volume in assay [6] is 233 mm^3; in assay [3] (CWR22R, end of the treatment period, n=5), 1,273 mm^3; in assay [4] (CWRSA6, end of the treatment period, n=5) it was 1,496 mm^3.

B1: PEG-Fab: Fab' fragment of rhuMAb 2C4 expressed in E. coli and conjugated to 20 kD branched polyethylene glycol (conjugate, chains of the INN, looked up)
VH: EVQLVESGGGLVQPGGSLRLSCAASGFTFTDYTMDWVRQAPGKGLEWVADVNPNSGGSIYNQRFKGRFTLSVDRSKNTLYLQMNSLRAEDTAVYYCARNLGPSFYFDYWGQGTLVTVSS
VL: DIQMTQSPSSLSASVGDRVTITCKASQDVSIGVAWYQQKPGKAPKLLIYSASYRYTGVPSRFSGSGSGTDFTLTISSLQPEDFATYYCQQYYIYPYTFGQGTKVEIK
modifications: Fab' 20 kD branched PEG
As for B1, the “effect on tumor growth / clinical activity” value in assay [3] is recorded as “inhibits tumor growth”.
